# Results taken from the supplement of paper PMC10307832.
# Legend:
# Test in all cases: relative viability (nuclei count vs DMSO), 5 days (fraction); higher = more cells survive
# 201T = tested on: 201T
# Outline: (§1)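 Nuclei were stained with Hoechst during a one-step fixation (final 0.05% Triton X-100, 1% formaldehyde, 1 ug/ml Hoechst) carried out 5 days after dosing, then counted on 4× images. The cells, lung cancer lines in 1536-well plates, had been dosed by pin tool the day after seeding with one drug alone or a fixed anchor-drug dose plus five library-drug doses (not always all listed) in √10 steps. Relative viability is the nuclei count in treated wells divided by that in vehicle wells, and each value is the median of duplicate plates.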
# CAL-12T = tested on: CAL-12T
# Outline: as §1
# COR-L 105 = tested on: COR-L 105
# Outline: as §1
# H3255 = tested on: H3255
# Outline: as §1
# HARA = tested on: HARA
# Outline: as §1
# HCC-15 = tested on: HCC-15
# Outline: as §1
# HCC-827 = tested on: HCC-827
# Outline: as §1
# LCLC-97TM1 = tested on: LCLC-97TM1
# Outline: as §1
# LU99A = tested on: LU99A
# Outline: as §1
# NCI-H1395 = tested on: NCI-H1395
# Outline: as §1
# NCI-H1651 = tested on: NCI-H1651
# Outline: as §1
# NCI-H1792 = tested on: NCI-H1792
# Outline: as §1
# NCI-H2009 = tested on: NCI-H2009
# Outline: as §1
# NCI-H2087 = tested on: NCI-H2087
# Outline: as §1
# NCI-H2170 = tested on: NCI-H2170
# Outline: as §1
# NCI-H2228 = tested on: NCI-H2228
# Outline: as §1
# NCI-H23 = tested on: NCI-H23
# Outline: as §1
# NCI-H2405 = tested on: NCI-H2405
# Outline: as §1
# NCI-H650 = tested on: NCI-H650
# Outline: as §1
# NCI-H661 = tested on: NCI-H661
# Outline: as §1
# PC-3 [JPC-3] = tested on: PC-3 [JPC-3]
# Outline: as §1
# SK-MES-1 = tested on: SK-MES-1
# Outline: as §1
# UMC-11 = tested on: UMC-11
# Outline: as §1
structure (smiles),measurement,setting,value
C=C1C(=O)O[C@@H](CCCCCCCC)[C@@H]1C(=O)O [C-75] + CC(=O)c1c(C)c2cnc(Nc3ccc(N4CCNCC4)cn3)nc2n(C2CCCC2)c1=O [Palbociclib] (partner 0.5 µM),relative viability,201T; first compound 0.08 µM,0.377
same,relative viability,201T; first compound 0.253 µM,0.374
same,relative viability,201T; first compound 0.8 µM,0.336
same,relative viability,201T; first compound 2.53 µM,0.3
same,relative viability,201T; first compound 8 µM,0.347
same,relative viability,CAL-12T; first compound 0.08 µM,0.531
same,relative viability,CAL-12T; first compound 0.253 µM,0.533
same,relative viability,CAL-12T; first compound 0.8 µM,0.452
same,relative viability,CAL-12T; first compound 2.53 µM,0.458
same,relative viability,CAL-12T; first compound 8 µM,0.449
same,relative viability,COR-L 105; first compound 0.08 µM,0.417
same,relative viability,COR-L 105; first compound 0.253 µM,0.41
same,relative viability,COR-L 105; first compound 0.8 µM,0.358
same,relative viability,COR-L 105; first compound 2.53 µM,0.303
same,relative viability,COR-L 105; first compound 8 µM,0.39
same,relative viability,H3255; first compound 0.08 µM,0.319
same,relative viability,H3255; first compound 0.253 µM,0.28
same,relative viability,H3255; first compound 0.8 µM,0.323
same,relative viability,H3255; first compound 2.53 µM,0.281
same,relative viability,H3255; first compound 8 µM,0.329
same,relative viability,HARA; first compound 0.08 µM,0.254
same,relative viability,HARA; first compound 0.253 µM,0.222
same,relative viability,HARA; first compound 0.8 µM,0.273
same,relative viability,HARA; first compound 2.53 µM,0.222
same,relative viability,HARA; first compound 8 µM,0.28
same,relative viability,HCC-15; first compound 0.08 µM,0.717
same,relative viability,HCC-15; first compound 0.253 µM,0.699
same,relative viability,HCC-15; first compound 0.8 µM,0.605
same,relative viability,HCC-15; first compound 2.53 µM,0.628
same,relative viability,HCC-15; first compound 8 µM,0.664
same,relative viability,HCC-827; first compound 0.253 µM,0.519
same,relative viability,HCC-827; first compound 0.8 µM,0.5
same,relative viability,HCC-827; first compound 8 µM,0.494
same,relative viability,LCLC-97TM1; first compound 0.08 µM,0.225
same,relative viability,LCLC-97TM1; first compound 0.253 µM,0.261
same,relative viability,LCLC-97TM1; first compound 0.8 µM,0.177
same,relative viability,LCLC-97TM1; first compound 2.53 µM,0.18
same,relative viability,LCLC-97TM1; first compound 8 µM,0.239
same,relative viability,LU99A; first compound 0.08 µM,0.383
same,relative viability,LU99A; first compound 0.253 µM,0.354
same,relative viability,LU99A; first compound 0.8 µM,0.481
same,relative viability,LU99A; first compound 2.53 µM,0.408
same,relative viability,LU99A; first compound 8 µM,0.398
same,relative viability,NCI-H1395; first compound 0.08 µM,0.586
same,relative viability,NCI-H1395; first compound 0.253 µM,0.584
same,relative viability,NCI-H1395; first compound 2.53 µM,0.588
same,relative viability,NCI-H1395; first compound 8 µM,0.597
same,relative viability,NCI-H1651; first compound 0.08 µM,0.509
same,relative viability,NCI-H1651; first compound 0.253 µM,0.521
same,relative viability,NCI-H1651; first compound 0.8 µM,0.521
same,relative viability,NCI-H1651; first compound 2.53 µM,0.476
same,relative viability,NCI-H1651; first compound 8 µM,0.55
same,relative viability,NCI-H1792; first compound 0.08 µM,0.67
same,relative viability,NCI-H1792; first compound 0.253 µM,0.656
same,relative viability,NCI-H1792; first compound 0.8 µM,0.686
same,relative viability,NCI-H1792; first compound 2.53 µM,0.381
same,relative viability,NCI-H1792; first compound 8 µM,0.65
same,relative viability,NCI-H2009; first compound 0.08 µM,0.24
same,relative viability,NCI-H2009; first compound 0.253 µM,0.192
same,relative viability,NCI-H2009; first compound 0.8 µM,0.19
same,relative viability,NCI-H2009; first compound 2.53 µM,0.171
same,relative viability,NCI-H2009; first compound 8 µM,0.216
same,relative viability,NCI-H2087; first compound 0.08 µM,0.239
same,relative viability,NCI-H2087; first compound 0.253 µM,0.232
same,relative viability,NCI-H2087; first compound 0.8 µM,0.239
same,relative viability,NCI-H2087; first compound 2.53 µM,0.209
same,relative viability,NCI-H2087; first compound 8 µM,0.217
same,relative viability,NCI-H2170; first compound 0.08 µM,0.388
same,relative viability,NCI-H2170; first compound 0.253 µM,0.406
same,relative viability,NCI-H2170; first compound 0.8 µM,0.377
same,relative viability,NCI-H2170; first compound 2.53 µM,0.319
same,relative viability,NCI-H2170; first compound 8 µM,0.424
same,relative viability,NCI-H2228; first compound 0.08 µM,0.743
same,relative viability,NCI-H2228; first compound 0.253 µM,0.988
same,relative viability,NCI-H2228; first compound 0.8 µM,0.589
same,relative viability,NCI-H2228; first compound 2.53 µM,0.7
same,relative viability,NCI-H2228; first compound 8 µM,0.681
same,relative viability,NCI-H23; first compound 0.08 µM,0.499
same,relative viability,NCI-H23; first compound 0.253 µM,0.582
same,relative viability,NCI-H23; first compound 0.8 µM,0.511
same,relative viability,NCI-H23; first compound 2.53 µM,0.467
same,relative viability,NCI-H23; first compound 8 µM,0.42
same,relative viability,NCI-H2405; first compound 0.08 µM,0.523
same,relative viability,NCI-H2405; first compound 0.253 µM,0.384
same,relative viability,NCI-H2405; first compound 0.8 µM,0.557
same,relative viability,NCI-H2405; first compound 2.53 µM,0.423
same,relative viability,NCI-H2405; first compound 8 µM,0.515
same,relative viability,NCI-H650; first compound 0.08 µM,0.31
same,relative viability,NCI-H650; first compound 0.253 µM,0.27
same,relative viability,NCI-H650; first compound 0.8 µM,0.36
same,relative viability,NCI-H650; first compound 2.53 µM,0.283
same,relative viability,NCI-H650; first compound 8 µM,0.39
same,relative viability,NCI-H661; first compound 0.08 µM,0.429
same,relative viability,NCI-H661; first compound 0.253 µM,0.41
same,relative viability,NCI-H661; first compound 0.8 µM,0.378
same,relative viability,NCI-H661; first compound 2.53 µM,0.374
same,relative viability,NCI-H661; first compound 8 µM,0.394
same,relative viability,PC-3 [JPC-3]; first compound 0.08 µM,0.54
same,relative viability,PC-3 [JPC-3]; first compound 0.253 µM,0.509
same,relative viability,PC-3 [JPC-3]; first compound 0.8 µM,0.515
same,relative viability,PC-3 [JPC-3]; first compound 2.53 µM,0.502
same,relative viability,PC-3 [JPC-3]; first compound 8 µM,0.568
same,relative viability,SK-MES-1; first compound 0.08 µM,0.321
same,relative viability,SK-MES-1; first compound 0.253 µM,0.349
same,relative viability,SK-MES-1; first compound 0.8 µM,0.309
same,relative viability,SK-MES-1; first compound 2.53 µM,0.264
same,relative viability,SK-MES-1; first compound 8 µM,0.292
same,relative viability,UMC-11; first compound 0.08 µM,0.308
same,relative viability,UMC-11; first compound 0.253 µM,0.315
same,relative viability,UMC-11; first compound 0.8 µM,0.321
same,relative viability,UMC-11; first compound 2.53 µM,0.351
same,relative viability,UMC-11; first compound 8 µM,0.268
